Results published in ChEMBL document CHEMBL1649276, “Phenylbutyrate induces antimicrobial peptide expression” (2009).
Calls of active or inactive are those of the source. No cut-off for these calls is given here.

What was measured:
VA10 [1] = assay: Induction of CAMP mRNA expression in human VA10 cells at 4 mM after 24 hrs by RT-PCR analysis; format: functional, cell-based
VA10 [2] = assay: Induction of CAMP mRNA expression in human VA10 cells at 4 mM after 24 hrs by RT-PCR analysis in presence of ERK1/2 inhibitor U0126 treated 1 hr before compound challenge; format: functional, cell-based
VA10 [3] = assay: Induction of DEFB3 mRNA expression in human VA10 cells at 4 mM after 24 hrs by RT-PCR analysis; format: functional, cell-based
VA10 [4] = assay: Induction of DEFB4 mRNA expression in human VA10 cells at 4 mM after 24 hrs by RT-PCR analysis; format: functional, cell-based
U-937 [5] = assay: Induction of CAMP mRNA expression in human U937 cells at 4 mM after 8 to 48 hrs by RT-PCR analysis; format: functional, cell-based
VA10 [6] = assay: Induction of DEFB2 mRNA expression in human VA10 cells at 4 mM after 24 hrs by RT-PCR analysis; format: functional, cell-based
VA10 [7] = assay: Induction of DEFB1 mRNA expression in human VA10 cells at 4 mM after 24 hrs by RT-PCR analysis; format: functional, cell-based
VA10 [8] = assay: Induction of CAMP mRNA expression in human VA10 cells at 4 mM after 24 hrs by RT-PCR analysis in presence of protein synthesis inhibitor CHX treated 1 hr before compound challenge; format: functional, cell-based
VA10 [9] = assay: Induction of LL-37 protein expression in human VA10 cells at 20 nM after 24 hrs by Western blotting; format: functional, cell-based
[10] = Induction of CAMP mRNA expression in human VA10 cells at 4 mM after 24 hrs by RT-PCR analysis in presence of 1,25(OH)2D3 relative to control; format: functional
VA10 [11] = assay: Induction of CAMP mRNA expression in human VA10 cells after 48 hrs by RT-PCR analysis; format: functional, cell-based
U-937 [12] = assay: Induction of DEFB1 mRNA expression in human U937 cells at 4 mM after 24 to 48 hrs by RT-PCR analysis; format: functional, cell-based
VA10 [13] = assay: Induction of CAMP mRNA expression in human VA10 cells at 4 mM after 24 hrs by RT-PCR analysis in presence of p38 kinase inhibitor SB203580 treated 1 hr before compound challenge; format: functional, cell-based
HT-29 = assay: Induction of CAMP mRNA expression in human HT-29 cells at 4 mM after 8 to 48 hrs by RT-PCR analysis; format: functional, cell-based
A498 = assay: Induction of CAMP mRNA expression in human A498 cells at 4 mM after 8 to 48 hrs by RT-PCR analysis; format: functional, cell-based
VA10 [14] = assay: Induction of LL-37 protein expression in human VA10 cells at 4 mM after 24 hrs by Western blotting; format: functional, cell-based
VA10 [15] = assay: Induction of CAMP mRNA expression in human VA10 cells at 4 mM by RT-PCR analysis; format: functional, cell-based; conditions: TDE = time-dependent effect
VA10 [16] = assay: Induction of CAMP mRNA expression in human VA10 cells at 4 mM after 24 hrs by RT-PCR analysis in presence of JNK inhibitor SP600125 treated 1 hr before compound challenge; format: functional, cell-based

Row | Structure (SMILES) | Activity (VA10 [1]) | Activity (VA10 [2]) | Activity (VA10 [3]) | Activity (VA10 [4]) | Activity (U-937 [5]) | Activity (VA10 [6]) | Activity (VA10 [7]) | Activity (VA10 [8]) | Activity (VA10 [9]) | fold change (FC) [10] | Activity (VA10 [11]) | Activity (U-937 [12]) | Activity (VA10 [13]) | Activity (HT-29) | Activity (A498) | Activity (VA10 [14]) | Activity (VA10 [15]) | Activity (VA10 [16])
1 | CC(Cc1ccccc1)C(=O)O (stereo not given) | Active |  |  |  |  |  |  |  |  |  |  |  |  |  |  |  |  | 
2 | CCC(C)(C)C(=O)O | inactive |  |  |  |  |  |  |  |  |  |  |  |  |  |  |  |  | 
3 | O=C([O-])CCCc1ccccc1.[Na+] [SODIUM PHENYLBUTYRATE] | Active | inactive | inactive | inactive | Active | inactive | Active | inactive | Active | 100 | Dose-dependent effect | inactive | inactive | Active | Active | Active | tde | inactive
